In patent US7629315B2, “Compositions for blocking the inhibitory effect of human CRP on human leptin” (University of Pittsburgh of the Commonwealth System of …, priority 2005, dated 2009):
Entries after “also recorded” stand apart in the source; their conditions may differ. [ ]: non-standard residue; d: D form.

How the values were obtained:
[1] = tested on: leptin-induced tyrosine phosphorylation of STAT3; assay: Leptin-induced STAT3 tyrosine phosphorylation in HEK293 cells expressing OB-Rb (western blot), human leptin; format: cell-based; details: human leptin 2 nM, protein pre-incubated with leptin, HEK293 OB-Rb cells
Procedure: (§1) 2. Signaling Studies: A HEK293 cell line stably expressing the human long-form receptor, OB-Rb (M. Friedman-Einat et al., 2003, Regul. Pept. 111, 77) was serum starved for 2-h before addition of leptin and CRP. Leptin (SEQ ID NO:4), in the presence or absence of C-reactive proteins, was pre-incubated in μ-MEM for 30 minutes at 37° C. before applied to the cells. After a 30-incubation with leptin (SEQ ID NO:4), the cells were harvested in a previously described protein lysis buffer. A. Z. Zhao et al., 1997, Proc. Natl. Acad. Sci. U.S.A. 94, 322. The protein extract was subjected to a western blot assay with an anti-phospho-STAT3 specific antibody (Cell Signaling, Beverly, Mass.). For studies involving the primary hypothalamic neurons, the rat hypothalamus was surgically isolated right after euthanasia, and immediately placed in the DMEM for incubation with leptin in the presence or absence of CRP.
(§2) To determine if the interaction between CRP and leptin influences cellular actions of leptin, we assessed the ability of leptin to stimulate tyrosine phosphorylation of STAT3 and PI3-kinase activity in the presence of CRP in vitro.

human CRP = molecular target: T1, human CRP (Homo sapiens, UniProt P02741); assay: Block of the inhibitory effect of human CRP on leptin-stimulated STAT3 phosphorylation in HEK-293 OB-Rb cells; format: cell-based; details: for restoration of leptin-stimulated STAT3 activation in the presence of human CRP: hexamer at concentrations as high as 0.8 μM, human CRP 8 μg/ml, human leptin 2 nM, 1-hour pre-incubation
T1 construct: purchased CHEMICON International
T1 sequence (P02741 19-224): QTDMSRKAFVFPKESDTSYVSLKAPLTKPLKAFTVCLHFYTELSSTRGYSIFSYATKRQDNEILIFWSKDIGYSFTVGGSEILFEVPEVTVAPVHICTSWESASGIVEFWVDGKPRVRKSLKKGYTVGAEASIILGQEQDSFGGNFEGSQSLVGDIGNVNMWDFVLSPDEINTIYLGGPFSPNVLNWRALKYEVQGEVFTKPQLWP
Procedure: In the in vitro experiment, Peptide-E was pre-incubated with human CRP for 30 minutes before being mixed with human leptin for an additional 45 minutes. The resultant mixture was then added to the HEK-293 cells overexpressing the long form leptin receptors, OB-Rb (FIG. 9). After a 30 minute incubation, the cells were harvested in a protein extraction buffer (Zhao, et al., 1997, PNAS). The signaling of leptin in the cells, measured by its ability to stimulate tyrosine phosphorylation on STAT3 in a western blot assay, was evaluated.
Using a design similar to the in vitro experiment described in Example 5, the hexamer of the '388 patent (SEQ ID NO:3) was pre-incubated with human CRP (8 μg/ml) and human leptin (2 nM) for 1-hour. The resultant mixture was then added to the HEK-293 cells overexpressing the long form leptin receptors, OB-Rb (FIG. 12). After a 30 minute incubation, the cells were harvested in a protein extraction buffer. The signaling of human leptin in the cells, measured by its ability to stimulate tyrosine phosphorylation on STAT3 in a western blot assay, was evaluated.

ob/ob mice = assay: Co-infusion of Peptide E with human CRP and leptin into ob/ob mice; format: in vivo, mouse; details: for restoration of leptin effect on body weight / restoration of leptin effect on food-intake: Pep-E 24 or 48 μg/day/mouse with human CRP 48 and leptin 12 μg/day/mouse
Procedure: FIG. 10. […] Infusion dosages for human CRP and leptin were 48 μg/day/mouse and 12 μg/day/mouse, respectively. The infusion rate for Pep-E (P) was 24 μg/day/mouse (medium dosage, abbreviated “m”) and 48 μg/day/mouse (high dosage, abbreviated “h”). Food-intake (FIGS. 10(A & C)) and body weight (FIGS. 10(B & D)) were monitored daily throughout the infusion. The arrows in A-D indicate the day of surgery. At the end of infusion, blood samples were collected for the measurement of blood-glucose, human CRP, and human leptin. The serum concentrations of human CRP and human leptin were 0.85±0.1 μg/ml and 18 ng±2 ng/ml, respectively. […] The glucose concentration from the mice infused with human CRP and leptin, but NOT with Pep-E was also shown.
In the in vivo experiment, the Peptide E polypeptide was co-infused through mini-osmotic pumps with human CRP and leptin into the ob/ob mice. Food-intake (24 hours) and body weight were followed during the infusion period (FIG. 10A-10D).

mouse leptin = mouse leptin (Mus musculus, UniProt P41160); assay: Immunoprecipitation of rat CRP with mouse leptin; format: binding; details: leptin and CRP mixture and rat serum
Chain of mouse leptin (P41160 22-167): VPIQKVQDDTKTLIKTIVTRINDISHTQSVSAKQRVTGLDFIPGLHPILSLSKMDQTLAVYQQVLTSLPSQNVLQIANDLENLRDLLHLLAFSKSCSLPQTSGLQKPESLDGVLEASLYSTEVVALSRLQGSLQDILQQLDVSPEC
Procedure: Direct binding of […] and leptin in an immunoprecipitation assay was determined. Rat CRP was purified from fresh rat serum to >95% employing a previously established affinity-purification protocol. J. Tseng et al., 1988, Mol. Immunol. 25, 679. This purity is very similar to the human CRP preparation obtained from a commercial source (CHEMICON International). The purified human- and rat-CRP proteins were pre-mixed with recombinant human and mouse leptin, respectively, before addition of specific antibodies against human- and mouse-leptin. The concentrations of CRP and leptin in the precipitation reaction were all within the physiological ranges (M. B. Schulze et al., 2004, Diabetes Care 27, 889; T. Kazumi et al., 2003, Metabolism 52, 1113).
In parallel experiments, recombinant leptin was also pre-mixed with human- or rat serum to allow for potential direct interactions prior to immunoprecipitation. The precipitation pellets obtained were subjected to western blot assays with specific anti-CRP antibodies. […] Because of the similarities between rat CRP and human CRP in the binding to leptin and of our main interest in the relevance to human obesity, focus was placed on potential functional effects of human CRP in the subsequent experiments.

[2] = tested on: mouse leptin-induced STAT3 activation; assay: Leptin-induced STAT3 tyrosine phosphorylation in HEK293 cells expressing OB-Rb, mouse leptin; format: cell-based; details: murine leptin 2 nM
Procedure: as §1, §2

[3] = tested on: insulin-stimulated PI3-kinase; assay: Insulin-stimulated PI3-kinase activity in differentiated 3T3-L1 adipocytes (specificity control); format: cell-based

human serum amyloid P-component (SAP): human serum amyloid P-component, control protein [reference compound]
effect on leptin-induced tyrosine phosphorylation of STAT3 [1]: did not significantly alter leptin-stimulated phosphorylation of STAT3

NH2—W—P—L—H—C—S—COOH (H-[dW][dP][dL][dH][dC][dS]-OH; SMILES CC(C)C[C@@H](NC(=O)[C@H]1CCCN1C(=O)[C@H](N)Cc1c[nH]c2ccccc12)C(=O)N[C@H](Cc1c[nH]cn1)C(=O)N[C@H](CS)C(=O)N[C@H](CO)C(=O)O; listed as Homo sapiens) [SEQ ID NO:5, D-form hex-peptide reported by Grasso, et al]
restoration of leptin-stimulated STAT3 activation in the presence of human CRP (human CRP): failed to restore leptin-stimulated STAT3 activation

NH2-S-C-H-L-P-W-COOH (H-SCHLPW-OH; listed as Homo sapiens) [SEQ ID NO:3, 6 amino acid polypeptide reported in U.S. Pat. No. 6,777,388 to Grasso, et al]
restoration of leptin-stimulated STAT3 activation in the presence of human CRP (human CRP): unable to block the negative effect of human CRP on the signaling capability of human leptin; also recorded: failed to restore leptin-stimulated STAT3 activation

Peptide E: chemically synthesized polypeptide of 27 amino acids representing a segment of human leptin (SEQ ID NO:2) (LAFSKSCHLPWASGLETLDSLGGVLEA; listed as Homo sapiens)
restoration of leptin effect on body weight (ob/ob mice): could restore both of these functions of human leptin | restoration of leptin effect on food-intake (ob/ob mice): could restore both of these functions of human leptin | restoration of leptin effect on body weight (ob/ob mice; listed as Peptide-E): restored the physiological effects of human leptin | restoration of leptin effect on food-intake (ob/ob mice; listed as Peptide-E): restored the physiological effects of human leptin | restoration of leptin effect on blood glucose (ob/ob mice; end of infusion, high dosage of Pep-E 48 μg/day/mouse with human CRP and leptin): could restore the beneficial effect of human leptin on blood glucose | STAT phosphorylation by the peptide itself (human CRP; Peptide-E by itself): did not induce any changes in STAT phosphorylation

B1: rat CRP: rat C-reactive protein purified from fresh rat serum to >95% (protein)
chain: HEDMSKQAFVFPGVSATAYVSLEAESKKPLEAFTVCLYAHADVSRSFSIFSYATKTSFNEILLFWTRGQGFSIAVGGPEILFSASEIPEVPTHICATWESATGIVELWLDGKPRVRKSLQKGYIVGTNASIILGQEQDSYGGGFDANQSLVGDIGDVNMWDFVLSPEQINAVYVGRVFSPNVLNWRALKYETHGDVFIKPQLWPLTDCCES
direct binding to mouse leptin (immunoprecipitation with anti mouse-leptin, anti-CRP western blot) (mouse leptin): could also bring down rat CRP | effect on mouse leptin-induced STAT3 phosphorylation [2]: attenuate the tyrosine-phosphorylation of STAT3; also recorded: higher concentrations of rat- than human-CRP are required to achieve the equivalent effects; also recorded: Attenuating effects | effect on insulin-stimulated PI3-kinase activity [3]: did not block insulin-stimulated PI3-kinase
